{"source": "patent US9364554B2", "about": "“Extracellular targeted drug conjugates” (priority 2009, dated 2016)", "key": {"MCF7": {"system": "MCF7", "assay": "In vitro cell proliferation assay (CellTiter-Glo, 3 days) MCF7", "format": "cell-based", "settings": "Homo sapiens", "protocol": "(§1) In vitro cell proliferation assays. […] All cell lines were maintained in complete media [RPMI medium 1640 supplemented with 10% (wt/vol) fetal bovine serum and Gentamycin (50 μg/ml)]. Cells were plated at a density of 1250 (H460 and A549) or 1825 (HCT15 and MCF7) cells per well of each 384-well white tissue culture treated microtiter plate in 20 uls complete media, and then were grown for 24 hour at 37° C. with 7% CO2 in a humidified incubator before agent/conjugate addition. In a separate 96-well plate, agent and antibody conjugate (in PBS) stocks were serially diluted in complete media at 5× final working concentrations, and 5 ul added to the cells used in the assay. Cells were incubated with the agent/conjugate for 3 days before cell viability testing. Cell viability testing used the CellTiter-Glo luminescent cell viability assay (Promega, Madison, Wis.). IC50 values of the agents to each cell line were determined using GraphPad Prism 5 software."}, "MCF10a": {"system": "MCF10a", "assay": "Cytotoxicity IC50 on MCF10a", "format": "cell-based", "settings": "Homo sapiens, MCF-10A; Example 9", "source_text": "(§2) ND indicates IC50 values that could not be determined at the concentrations tested. The presence of the antibody M53's target on the cell surface as determined by M53 cell staining is indicated as Yes/No. The origin of the cell line and disease type for each cell line is also indicated."}, "SKOV3": {"system": "SKOV3", "assay": "Cytotoxicity IC50 on SKOV3", "format": "cell-based", "settings": "Homo sapiens, SK-OV-3; Example 9", "source_text": "as §2"}, "MEL2": {"system": "MEL2", "assay": "Cytotoxicity IC50 on MEL2", "format": "cell-based", "settings": "Homo sapiens, Example 9", "source_text": "as §2"}, "MB-231": {"system": "MB-231", "assay": "Cytotoxicity IC50 on MB-231", "format": "cell-based", "settings": "Homo sapiens; Example 9", "source_text": "as §2"}, "H460": {"system": "H460", "assay": "In vitro cell proliferation assay (CellTiter-Glo, 3 days) H460", "format": "cell-based", "settings": "Homo sapiens", "protocol": "as §1"}, "MALME-3M": {"system": "MALME-3M", "assay": "Cytotoxicity IC50 on MALME-3M", "format": "cell-based", "settings": "Homo sapiens, Example 9", "source_text": "as §2"}, "A375": {"system": "A375", "assay": "Cytotoxicity IC50 on A375", "format": "cell-based", "settings": "Homo sapiens", "source_text": "as §2\nParent CEN09-106, CEN09-104 and CEN10-126 drugs were all linked to antibody M53 via the PEG24 linker as described in Example 5. The intermediate drug-PEG24's were capped with cysteine as described in Example 5. Cytotoxicity of the EDC's and the drug-PEG24 linkers were evaluated in vitro on the NSCLC line A549 and malignant melanoma cell line A375 as described in Example 5."}, "A549": {"system": "A549", "assay": "In vitro cell proliferation assay (CellTiter-Glo, 3 days) A549", "format": "cell-based, human", "settings": "for IC50: Homo sapiens; for activity decrease when attached to the PEG24 linker and capped, compared to the free uncoupled agent: Example 15", "protocol": "as §1\nFor the experiment below, α-Fl-CEN10-105 (also termed α-Fl-106), CEN10-105-Cys (also termed PEG24106) and M53-PEG24-CEN09-106 were varied as indicated in FIG. 11. […] All were assayed in the A549 cell proliferation assay. Cells were maintained in complete media [RPMI medium 1640 supplemented with 10% (wt/vol) fetal bovine serum and Gentamycin (50 μg/ml)]. Cells were plated at a density of 1250 per well of a 384-well white tissue culture treated microtiter plate in 20 uls complete media, then were grown for 24 hour at 37° C. with 7% CO2 in a humidified incubator before agent/conjugate addition. In a separate 96-well plate, agent and antibody conjugate (in PBS) stocks were serially diluted in complete media at 5× final working concentrations, and 5 uls added to the cells used in the assay. For the competition assay (M53 Comp) M53 was serially diluted from 500 to 0.11 nM in the presence of 5 nM PEG24-106, and 5 ul of these dilutions were added to cells used in this assay. Cells were incubated with the agent/conjugate for 3 days before cell viability testing. Cell viability testing used the CellTiterGlo luminescent cell viability assay (Promega, Madison, Wis.).\nCytotoxicity of the above EDCs were evaluated in vitro on the NSCLC line A549. Cells were maintained in complete media [RPMI medium 1640 supplemented with 10% (wt/vol) fetal bovine serum and Gentamycin (50 μg/ml)]. Cells were plated at a density of 1250 per well of a 384-well white tissue culture treated microtiter plate in 20 uls complete media, then were grown for 24 hour at 37° C. with 7% CO2 in a humidified incubator before conjugate addition. In a separate 96-well plate, ADC (in PBS) stocks were serially diluted in complete media at 5× final working concentrations, and 5 uls added to the cells used in the assay. Cells were incubated in the presence of the compounds for 72 hrs prior to cell viability testing. Cell viability testing was performed using the CellTiter-Glo luminescent cell viability assay (Promega, Madison, Wis.).\nCytotoxicity of the above compounds were evaluated in vitro on the NSCLC line A549. Cells were maintained in complete media [RPMI medium 1640 supplemented with 10% (wt/vol) fetal bovine serum and Gentamycin (50 μg/ml)]. Cells were plated at a density of 1250 per well of a 384-well white tissue culture treated microtiter plate in 20 uls complete media, then were grown for 24 hour at 37° C. with 7% CO2 in a humidified incubator before agent addition."}, "HCT15": {"system": "HCT15", "assay": "In vitro cell proliferation assay (CellTiter-Glo, 3 days) HCT15", "format": "cell-based", "settings": "Homo sapiens", "protocol": "as §1"}, "HT29": {"system": "HT29", "assay": "Cytotoxicity IC50 on HT29", "format": "cell-based", "settings": "Homo sapiens, HT-29; Example 9", "source_text": "as §2"}, "A431": {"system": "A431", "assay": "Cytotoxicity IC50 on A431", "format": "cell-based", "settings": "Homo sapiens, A-431; Example 9", "source_text": "as §2"}, "A549 cells": {"system": "A549 cells", "assay": "In vitro cell proliferation assay, Example 4 (CellTiter-Glo, 2 days)", "format": "cell-based, human", "protocol": "In vitro cell proliferation assays. […] All cell lines were maintained in complete media [RPMI medium 1640 supplemented with 10% (wt/vol) fetal bovine serum and Gentamycin ([…])]. Cells were plated at a density of 5,000 cells per well of each 96-well black tissue culture treated microtiter plate in 95 ul complete media, then were grown for 24 hour at 37° C. with 7% CO2 in a humidified incubator before agent/conjugate addition. In a separate 96-well plate, agent (in DMSO) and antibody conjugate (in PBS) stocks were serially diluted in complete media at 20× final working concentrations, and 5 ul added to the cells used in the assay. Doxorubicin was used as the control to monitor the behavior of the cell lines used. Cells were incubated with the agent/conjugate for 2 days before luminescence reading. Cell viability testing used the CellTiter-Glo luminescent cell viability assay (Promega, Madison, Wis.)."}, "[1]": {"settings": "A549, read-out: IC50 A549, Example 15"}}, "note": "Read-outs that look alike come from different tables or passages of the source.", "data": [{"compound": "C[C@]12CC[C@H](OC3OC[C@H](N)[C@@H](O)[C@@H]3O)C=C1CCC1C2CC[C@]2(C)[C@@H](c3ccc(=O)oc3)CC[C@]12O", "note": "(stereo partly drawn) [CEN09-106, Scillarenin-4-amino-4-deoxy-L-xylopyranoside]", "values": [{"measurement": "IC50", "setting": "MCF7; MCF7, 72 h, read-out: IC50 MCF7", "value": 0.00188, "unit": "µM"}, {"measurement": "IC50", "setting": "MCF7; MCF7, read-out: IC50 MCF7", "value": 0.0026, "unit": "µM"}, {"measurement": "IC50", "setting": "MCF10a", "value": 0.0066, "unit": "µM"}, {"measurement": "IC50", "setting": "SKOV3", "value": 0.0053, "unit": "µM"}, {"measurement": "IC50", "setting": "MEL2", "value": 0.0043, "unit": "µM"}, {"measurement": "IC50", "setting": "MB-231", "value": 0.007, "unit": "µM"}, {"measurement": "IC50", "setting": "H460; NCI-H460, 72 h, read-out: IC50 H460", "value": 0.00131, "unit": "µM"}, {"measurement": "IC50", "setting": "H460; NCI-H460, read-out: IC50 H460", "value": 0.0016, "unit": "µM"}, {"measurement": "IC50", "setting": "MALME-3M", "value": 0.0054, "unit": "µM"}, {"measurement": "IC50", "setting": "A375; A-375, Example 9", "value": 0.0032, "unit": "µM"}, {"measurement": "IC50", "setting": "A375; A-375, Example 15", "value": 0.0014, "unit": "µM"}, {"measurement": "IC50", "setting": "A549; A549, 72 h, Example 14, cysteine-capped linker forms, A549, 72 hrs", "value": 0.00046, "unit": "µM"}, {"measurement": "IC50", "setting": "A549; A549, 72 h, read-out: IC50 A549, 3 days, CellTiter-Glo", "value": 0.00056, "unit": "µM"}, {"measurement": "IC50", "setting": "A549; A549, read-out: IC50 A549, Example 9", "value": 0.0007, "unit": "µM"}, {"measurement": "IC50", "setting": "A549; [1]", "value": 0.0005, "unit": "µM"}, {"measurement": "IC50", "setting": "HCT15; HCT-15, 72 h, read-out: IC50 HCT15", "value": 0.00235, "unit": "µM"}, {"measurement": "IC50", "setting": "HCT15; HCT-15, read-out: IC50 HCT15", "value": 0.0023, "unit": "µM"}, {"measurement": "IC50", "setting": "HT29", "value": 0.0031, "unit": "µM"}, {"measurement": "IC50", "setting": "A431", "value": 0.002, "unit": "µM"}]}, {"compound": "C[C@]12CCC(=NNC(=O)CN)C=C1CCC1C2CC[C@]2(C)[C@@H](c3ccc(=O)oc3)CC[C@]12O", "note": "(stereo partly drawn) [CEN09-104, glycinyl hydrazine of scillarenone]", "values": [{"measurement": "IC50", "setting": "A375; A-375, Example 15", "value": 0.23, "unit": "µM"}, {"measurement": "activity decrease when attached to the PEG24 linker and capped, compared to the free uncoupled agent", "setting": "A549", "value": "~5", "unit": "fold"}, {"measurement": "IC50", "setting": "A549; [1]", "value": 0.092, "unit": "µM"}]}, {"compound": "scillarenin neo-4-amino-4-deoxy-L-xylopyranoside [CEN08-243]", "values": [{"measurement": "A549 cell cytotoxicity (in words)", "setting": "A549 cells; within the testing concentration range, antibodies alone = reduced antibody with linker, no agent", "value": "display cytotoxic activity"}]}, {"compound": "CC1=C2C[C@H]3[C@@H](CC=C4C[C@@H](O)CC[C@@]43C)[C@@H]2CC[C@]12O[C@@H]1C[C@H](C)CN[C@H]1[C@H]2C", "note": "[cyclopamine, Cyclopamine, reference compound]", "values": [{"measurement": "IC50", "setting": "A549; A549, read-out: IC50 A549", "value": 392, "unit": "µM"}]}, {"compound": "CC1=C2C[C@H]3[C@@H](CC=C4C[C@@H](O)CC[C@@]43C)[C@@H]2CC[C@]12O[C@@H]1C[C@H](C)CN(CCCCCCNC(=O)CCOCCOCCOCCOCCOCCOCCOCCOCCOCCOCCOCCOCCOCCOCCOCCOCCOCCOCCOCCOCCOCCOCCOCCOCCNC(=O)CCN3C(=O)C=CC3=O)C1[C@H]2C", "note": "(stereo partly drawn) [CEN10-130]", "values": [{"measurement": "IC50", "setting": "A549; A549, Example 10, working concentrations 0.9 to 1000 uM, read-out: IC50 A549", "value": 244, "unit": "µM"}]}, {"compound": "N[C@@H](C=O)[C@@H](O)[C@H](O)[C@H](O)CO", "note": "[GlcNH2, 2-amino-2-deoxy-D-Glucose, reference compound]", "values": [{"measurement": "IC50", "setting": "H460; NCI-H460, read-out: IC50 H460", "value": "> 1000", "unit": "µM"}, {"measurement": "IC50", "setting": "A549; A549, read-out: IC50 A549, Example 11, 457 nM to 1 mM", "value": "> 1000", "unit": "µM"}]}, {"compound": "scillarenin-4-amino-4-deoxy-L-ribopyranoside [CEN09-107]", "values": [{"measurement": "activity of conjugate compared with free agent (in words)", "setting": "A549 cells; A549, FIGS. 3-6", "value": "more active when not conjugated to L15"}]}, {"compound": "C[C@]12CC[C@H](O[C@@H]3OC(CO)[C@@H](O)[C@H](O)C3N)C=C1CCC1C2CC[C@]2(C)[C@@H](c3ccc(=O)oc3)CC[C@]12O", "note": "(stereo partly drawn) [CEN10-126, scillarenin-2-deoxy-2-amino-β-D-glucopyranoside]", "values": [{"measurement": "activity decrease when attached to the PEG24 linker and capped, compared to the free uncoupled agent", "setting": "A549", "value": "~300", "unit": "fold"}, {"measurement": "IC50", "setting": "A549; [1]", "value": 0.0013, "unit": "µM"}]}]}
